Like-named read-outs stand apart in the source and are kept apart here.
Columns and labels:
[1] = target: T1, Native human Factor XIa protease (Homo sapiens, UniProt P03951); test: Inhibition of activity of Factor XIa protease (chromogenic substrate S-2366); assay type: biochemical; conditions: S-2366 1 mM, 37° C. 10 minutes, absorption at 405 nm
T1 construct: The Native human Factor XIa protease was purchased from Abcam; purchased Abcam ab62411
Outline: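 Native human Factor XIa (final […]) in 100 mM Tris-HCl, 200 mM NaCl, 0.02% Tween 20, pH 7.4, preincubated with compound 5 min on ice; 1 mM S-2366 added, 10 min at 37° C. Absorbance at 405 nm versus 0.1% DMSO control; IC50 by nonlinear regression, compound 10,000 nM to […] final.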

[2] = Metabolic stability in mouse liver microsomes; assay type: in vitro ADME
Method: The experiment was intended to study the metabolic stability of the compounds of the present invention in dog and mouse liver microsomes.
A test compound and the compound of Comparative Example 1 were incubated with dog and mouse liver microsomes (the Corning Company. USA) respectively, and a coenzyme NADPH was added to start the reaction. 135 μL of acetonitrile containing an internal standard (IS) was added to wells of a corresponding plate after 0, 5, 15, 30 and 45 minutes respectively to terminate the reaction. After protein precipitation, the solution was centrifuged at 5.594 rpm for 15 minutes, and a supernatant was taken. The supernatant was diluted with water by 1:1 (volume ratio) and then analyzed by a LC-MS/MS method. Ketanserin was used as an internal reference compound, and two copies of Ketanserin were incubated in parallel.
A peak area ratio of analyte/internal standard (Aanalyte/A1s) was obtained by an instrument, and a remaining percentage (% Control) was calculated by ratios of Aanalyte/A1s in a sample at a non-zero time point and a sample at a zero time point. Ln (% Control) was plotted and fitted linearly with the incubation time. A scavenging constant (k, min^−1) and a scavenging half-life (T1/2, min) of the tested compound were calculated by the following equation.

[3] = Pharmacokinetics in ICR mouse; assay type: in vivo; conditions: male, plasma; for AUC(0-t): read-out: Curve area AUC0-t; for half-life: read-out: Half-life period T1/2(h) (converted)
Method: Taking an ICR mouse as a tested animal, the ICR mouse was administrated with the compound in Example 96 of the present invention by intravenous injection and intragastric administration, and drug concentrations in plasma at different times were determined by a LC/MS/MS method to study pharmacokinetic characteristics of the compound of the present invention in the mouse.
ICR mice, male, 29.2 g to 34.9 g, purchased from Beijing Vital River Laboratory Animal Technology Co., Ltd.
Preparation of drug administrated by intravenous injection: a proper amount of compound to be tested was added to a proper amount of DMAC: (30% Soltol HS 15): Saline=10%: 10%: 80% (v/v/v), and shaken in a vortex manner, so as to prepare a final solution with a concentration of 0.2 mg/mL.
Preparation of drug administrated by intragastric administration: a proper amount of compound to be tested was added to a proper amount of DMA: (30% Soltol HS 15): Saline=10%: 10%: 80% (v/v/v), and shaken in a vortex manner, so as to prepare a final solution with a concentration of 0.5 mg/mL.
ICR mice were divided into an intravenous injection group and an intragastric administration group (9 rats in single group).
Intravenous injection group: the drug was administrated by intravenous injection (according to a dosage of 1 mg/kg and a volume of 5 mL/kg) without fasting.
Intragastric administration group: the drug was administrated by intragastric administration (according to a dosage of 5 mg/kg and a volume of 10 mL/kg) after fasting overnight, and food was taken 4 hours after administration.
Intravenous injection group: about 80 μL of blood was collected into an EDTA-K2 anticoagulant tube through an orbit 0.083 hour, 0.25 hour, 0.5 hour, 1 hour, 2 hours, 4 hours, 8 hours, 12 hours and 24 hours after administration.
Intragastric administration group: about 80 μL of blood was collected through an orbit 0.25 hour, 0.5 hour, 1 hour, 2 hours, 4 hours, 8 hours, 12 hours and 24 hours before and after administration.
The whole blood sample was placed in an EDTA-K2 anticoagulant tube. Plasma was centrifugally separated (centrifugation conditions: 1,500 g, 10 minutes). The collected upper plasma was stored al −40° C. to −20° C. before analysis.
Contents of the compound to be tested in mouse plasma after intravenous and intragastric administration were determined by LC-MS/MS.

[4] = iv, injection administration 1 mg/kg
[5] = po, intragastric administration 5 mg/kg

T1 sequence (P03951 388-625 limits assumed): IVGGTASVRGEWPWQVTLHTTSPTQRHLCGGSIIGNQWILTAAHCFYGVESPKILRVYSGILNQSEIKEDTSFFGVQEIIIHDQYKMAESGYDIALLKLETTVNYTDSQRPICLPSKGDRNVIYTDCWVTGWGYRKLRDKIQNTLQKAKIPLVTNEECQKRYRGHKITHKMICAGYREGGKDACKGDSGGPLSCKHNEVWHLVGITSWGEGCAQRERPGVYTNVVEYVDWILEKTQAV
T1 sequence (P03951 19-387 partner limits assumed): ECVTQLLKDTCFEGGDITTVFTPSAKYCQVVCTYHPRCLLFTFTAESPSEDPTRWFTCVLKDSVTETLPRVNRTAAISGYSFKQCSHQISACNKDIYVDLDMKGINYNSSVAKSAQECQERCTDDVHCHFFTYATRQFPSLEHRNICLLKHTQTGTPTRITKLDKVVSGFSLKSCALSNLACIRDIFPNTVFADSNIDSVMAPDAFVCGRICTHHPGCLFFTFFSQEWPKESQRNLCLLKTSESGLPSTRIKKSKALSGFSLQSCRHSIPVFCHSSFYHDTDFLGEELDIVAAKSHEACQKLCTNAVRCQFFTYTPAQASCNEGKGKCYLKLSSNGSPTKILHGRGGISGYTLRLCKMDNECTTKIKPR

- IC50 [1]: 42.8 nM
- half-life at 1 μM ([2]; mouse liver microsomes 0.5 mg/mL, 1 μM compound, NADPH, read-out: Half-life period (T1/2 min) Mouse): 5.53 h
- AUC(0-t) [3, 4]: 1240 ng·h/mL
- half-life [3, 4]: 0.664 h
- bioavailability ([3]; po, intragastric 5 mg/kg vs injection 1 mg/kg, read-out: Bioavailability F(%)): 69.8%
- Cmax ([3]; po, intragastric administration 5 mg/kg, read-out: Blood concentration Cmax): 2040 ng/mL
- AUC(0-t) [3, 5]: 4330 ng·h/mL
- half-life [3, 5]: 1.84 h
SMILES: COCC[C@@H](C(=O)Nc1ccc2nn(C)cc2c1)N1CC(=O)N(c2cc(Cl)ccc2-n2cc(Cl)nn2)CC1=O [Example 96, (S)-2-(4-(5-chloro-2-(4-chloro-1H-1,2,3-triazol-1-yl)phenyl)-2,5-dioxopiperazin-1-yl)-4-methoxy-N-(2-methyl-2H-indazol-5-yl)butanamide]
- Half-life period and stability compared with Comparative Example 1 ([2]; mouse liver microsomes, in words): longer half-life period and a higher stability
